The NIST ThermoML archive (doi:10.1021/je700245a)

Experiment: xn = mol fraction of the nth substance listed
Conditions: 101 kPa, Liquid

CN(CCO)CCO [N-methyldiethanolamine] + CCO
speed of sound [m/s], Sing-around technique in a fixed-path interferometer
Conditions | 288.15 K | 293.15 K | 298.15 K | 303.15 K | 308.15 K | 313.15 K
x1 = 0.0049 | 1183.1 | 1166 | 1149.2 | 1132.3 | 1114.8 | 1098.8
x1 = 0.0253 | 1201.7 | 1184.9 | 1168 | 1151.2 | 1134.5 | 1117.9
x1 = 0.0524 | 1222.5 | 1205.9 | 1189.3 | 1172.7 | 1156.3 | 1139.8
x1 = 0.102 | 1260.9 | 1244.5 | 1228.1 | 1211.8 | 1195.6 | 1179.5
x1 = 0.1629 | 1301 | 1286 | 1272.9 | 1257.3 | 1241.5 | 1225.8
x1 = 0.2474 | 1353 | 1338 | 1325 | 1310 | 1293 | 1278
x1 = 0.3713 | 1415 | 1399.7 | 1384.6 | 1369.4 | 1354.1 | 1339
x1 = 0.4806 | 1460 | 1444 | 1429.2 | 1414 | 1398.8 | 1383.7
x1 = 0.5506 | 1486 | 1470 | 1457 | 1439 | 1423.8 | 1408.7
x1 = 0.7035 | 1536 | 1520 | 1500 | 1484.3 | 1468.9 | 1453.6
x1 = 0.7916 | 1557 | 1542 | 1522 | 1505.6 | 1490.3 | 1475.1
x1 = 0.8688 | 1573.2 | 1557.7 | 1538 | 1520.8 | 1506.2 | 1491.5
x1 = 0.9415 | 1588.4 | 1572.9 | 1553 | 1535 | 1520.4 | 1506.1
x1 = 1 | 1598.8 | 1583.1 | 1564 | 1546 | 1531 | 1516

mass density [kg/m3]
Conditions | 288.15 K | 293.15 K | 298.15 K | 303.15 K | 308.15 K | 313.15 K
x1 = 0.0049 | 797.34 | 793.08 | 788.79 | 784.48 | 779.2 | 775.41
x1 = 0.0253 | 810.93 | 806.7 | 802.07 | 797.45 | 792.51 | 788.32
x1 = 0.0524 | 826.23 | 822.03 | 817.31 | 812.97 | 807.85 | 803.95
x1 = 0.102 | 855.32 | 850.46 | 845.79 | 841.06 | 835.99 | 831.61
x1 = 0.1629 | 883.86 | 879 | 874.36 | 869.83 | 864.64 | 860.34
x1 = 0.2474 | 916.48 | 911.75 | 907.18 | 902.4 | 897.2 | 892.65
x1 = 0.3713 | 952.15 | 947.5 | 942.7 | 938.24 | 933.17 | 928.65
x1 = 0.4806 | 977.2 | 973.1 | 968.28 | 963.57 | 958.75 | 954
x1 = 0.5506 | 991.1 | 986.7 | 982.08 | 977.52 | 972.75 | 967.98
x1 = 0.7035 | 1013.7 | 1009.24 | 1005.04 | 1000.62 | 996.08 | 991.6
x1 = 0.7916 | 1024.1 | 1019.88 | 1015.3 | 1011.24 | 1006.79 | 1002.49
x1 = 0.8688 | 1032.69 | 1028.4 | 1024.2 | 1019.64 | 1015.81 | 1011.97
x1 = 0.9415 | 1038.68 | 1034.96 | 1031.19 | 1027.42 | 1023.63 | 1019.82
x1 = 1 | 1044.32 | 1040.6 | 1036.83 | 1033.06 | 1029.26 | 1025.45

CCO [ethanol] + CN(CCO)CCO
Sing-around technique in a fixed-path interferometer, x2 = 0
Conditions | speed of sound [m/s]
288.15 K | 1179
293.15 K | 1162
298.15 K | 1144.9
303.15 K | 1128
308.15 K | 1111.1
313.15 K | 1094.3

x2 = 0
Conditions | mass density [kg/m3]
288.15 K | 793.6
293.15 K | 789.35
298.15 K | 785.06
303.15 K | 780.76
308.15 K | 776
313.15 K | 772.03

CCO [ethanol] + OCCN(CCO)CCO
x2 = 0
Conditions | mass density [kg/m3] | speed of sound [m/s]
288.15 K | 793.6 | 1179
293.15 K | 789.35 | 1162
298.15 K | 785.06 | 1144.9
303.15 K | 780.76 | 1128
308.15 K | 776 | 1111.1
313.15 K | 772.03 | 1094.3

OCCN(CCO)CCO [triethanolamine] + CCO
Conditions | mass density [kg/m3] | speed of sound [m/s]
288.15 K, x1 = 0.0075 | 799.61 | 1185.2
288.15 K, x1 = 0.0184 | 808.53 | 1193.4
288.15 K, x1 = 0.0304 | 818 | 1202.1
288.15 K, x1 = 0.0622 | 840.61 | 1225.5
288.15 K, x1 = 0.1385 | 889.41 | 1277
288.15 K, x1 = 0.2275 | 935.37 | 1333.2
288.15 K, x1 = 0.335 | 979.49 | 1397
288.15 K, x1 = 0.4675 | 1021.75 | 1453.1
288.15 K, x1 = 0.6413 | 1064.29 | 1528
288.15 K, x1 = 0.779 | 1091.59 | 1558.4
288.15 K, x1 = 0.8537 | 1104.43 | 1597.9
288.15 K, x1 = 0.9328 | 1116.76 | 1617.3
288.15 K, x1 = 1 | 1126.19 | 1640.5
293.15 K, x1 = 0.0075 | 795.43 | 1168.3
293.15 K, x1 = 0.0184 | 804.51 | 1176.9
293.15 K, x1 = 0.0304 | 813.73 | 1185.9
293.15 K, x1 = 0.0622 | 836.37 | 1210
293.15 K, x1 = 0.1385 | 885.58 | 1262.7
293.15 K, x1 = 0.2275 | 931.77 | 1320
293.15 K, x1 = 0.335 | 976.06 | 1385
293.15 K, x1 = 0.4675 | 1018.53 | 1442.5
293.15 K, x1 = 0.6413 | 1061.37 | 1516.6
293.15 K, x1 = 0.779 | 1088.73 | 1546.8
293.15 K, x1 = 0.8537 | 1101.67 | 1585.3
293.15 K, x1 = 0.9328 | 1114.01 | 1604.6
293.15 K, x1 = 1 | 1123.42 | 1625.6
298.15 K, x1 = 0.0075 | 791.34 | 1151.4
298.15 K, x1 = 0.0184 | 800.35 | 1160.4
298.15 K, x1 = 0.0304 | 809.59 | 1170
298.15 K, x1 = 0.0622 | 832.35 | 1194.4
298.15 K, x1 = 0.1385 | 881.74 | 1248.6
298.15 K, x1 = 0.2275 | 928.14 | 1307.1
298.15 K, x1 = 0.335 | 972.67 | 1373.1
298.15 K, x1 = 0.4675 | 1015.52 | 1431.6
298.15 K, x1 = 0.6413 | 1058.61 | 1505.9
298.15 K, x1 = 0.779 | 1086.14 | 1536.4
298.15 K, x1 = 0.8537 | 1099.23 | 1574.3
298.15 K, x1 = 0.9328 | 1111.63 | 1593.8
298.15 K, x1 = 1 | 1120.99 | 1614.5
303.15 K, x1 = 0.0075 | 786.78 | 1134.6
303.15 K, x1 = 0.0184 | 796.27 | 1143.9
303.15 K, x1 = 0.0304 | 805.5 | 1153.8
303.15 K, x1 = 0.0622 | 828.41 | 1178.9
303.15 K, x1 = 0.1385 | 877.88 | 1234.5
303.15 K, x1 = 0.2275 | 924.44 | 1294.3
303.15 K, x1 = 0.335 | 969.17 | 1361.4
303.15 K, x1 = 0.4675 | 1012.27 | 1420.9
303.15 K, x1 = 0.6413 | 1055.67 | 1496
303.15 K, x1 = 0.779 | 1083.38 | 1526.6
303.15 K, x1 = 0.8537 | 1096.33 | 1564.5
303.15 K, x1 = 0.9328 | 1108.88 | 1584.2
303.15 K, x1 = 1 | 1118.21 | 1604.5
308.15 K, x1 = 0.0075 | 782.53 | 1117.9
308.15 K, x1 = 0.0184 | 791.61 | 1127.4
308.15 K, x1 = 0.0304 | 801.05 | 1137.7
308.15 K, x1 = 0.0622 | 824.11 | 1163.4
308.15 K, x1 = 0.1385 | 873.56 | 1220.4
308.15 K, x1 = 0.2275 | 920.24 | 1281.5
308.15 K, x1 = 0.335 | 965.2 | 1349.9
308.15 K, x1 = 0.4675 | 1008.69 | 1410.5
308.15 K, x1 = 0.6413 | 1052.55 | 1486.6
308.15 K, x1 = 0.779 | 1080.43 | 1517.4
308.15 K, x1 = 0.8537 | 1093.46 | 1555.6
308.15 K, x1 = 0.9328 | 1106.09 | 1575.4
308.15 K, x1 = 1 | 1115.38 | 1595.5
313.15 K, x1 = 0.0075 | 778.51 | 1101.2
313.15 K, x1 = 0.0184 | 787.72 | 1111.1
313.15 K, x1 = 0.0304 | 797.32 | 1121.6
313.15 K, x1 = 0.0622 | 820.47 | 1148
313.15 K, x1 = 0.1385 | 869.89 | 1206.4
313.15 K, x1 = 0.2275 | 916.68 | 1268.8
313.15 K, x1 = 0.335 | 961.76 | 1338.4
313.15 K, x1 = 0.4675 | 1005.44 | 1400.1
313.15 K, x1 = 0.6413 | 1049.55 | 1477.3
313.15 K, x1 = 0.779 | 1077.53 | 1508.5
313.15 K, x1 = 0.8537 | 1090.66 | 1547
313.15 K, x1 = 0.9328 | 1103.23 | 1567.1
313.15 K, x1 = 1 | 1112.57 | 1586
